According to patent publication US9421209B2, “Kinase modulators” (Rhizen Pharmaceuticals SA, priority 2009, dated 2016):

How the values were obtained:
P110 δ/Pi3K δ = P110 δ/Pi3K δ (Homo sapiens, UniProt O00329); test: Fluorescent (HTRF) determination of PI3K enzyme activity, δ isoform; assay type: biochemical; set-up: inhibition: dose or concentration left out as unconfirmed
Description: Assay 1: Fluorescent determination of PI3Kinase Kinase enzyme activity
Phosphoinositide 3 kinases (PI3K) belong to a class of lipid kinases that play a critical role in the regulation of several key cellular processes. The PI3K are capable of phosphorylating the 3-hydroxy position of phosphoinositols thereby generating second messengers involved in downstream signalling events. The homogenous time resolved fluorescence (HTRF) assay allows detection of 3,4,5-triphosphate (PIP3) formed as a result of phosphorylation of phosphotidylinositol 4,5-biphosphate (PIP2) by PI3K isoforms such as α, β, γ or δ.
PI3K isoform activity for α, β, γ or δ was determined using a PI3K human HTRF™ Assay Kit (Millipore, Billerica, Mass.) with modifications. All incubations were carried out at room temperature. […] After the initial incubation, 5 μl/well of 400 μM ATP was added and incubated for an additional 30 minutes. Reaction was terminated by adding 5 μl/well stop solution (Millipore, Billerica, Mass.). Five microliters of detection mix (Millipore, Billerica, Mass.) were then added to each well and was incubated for 6-18 h in the dark. […] Data were analyzed using Graphpad Prism (Graphpad software; San Diego Calif.) for IC50 determination. Percent inhibition was calculated based on the values for the blank and enzyme controls.

P110 δ/Pi3K δ, sequence (O00329 whole entry, canonical isoform): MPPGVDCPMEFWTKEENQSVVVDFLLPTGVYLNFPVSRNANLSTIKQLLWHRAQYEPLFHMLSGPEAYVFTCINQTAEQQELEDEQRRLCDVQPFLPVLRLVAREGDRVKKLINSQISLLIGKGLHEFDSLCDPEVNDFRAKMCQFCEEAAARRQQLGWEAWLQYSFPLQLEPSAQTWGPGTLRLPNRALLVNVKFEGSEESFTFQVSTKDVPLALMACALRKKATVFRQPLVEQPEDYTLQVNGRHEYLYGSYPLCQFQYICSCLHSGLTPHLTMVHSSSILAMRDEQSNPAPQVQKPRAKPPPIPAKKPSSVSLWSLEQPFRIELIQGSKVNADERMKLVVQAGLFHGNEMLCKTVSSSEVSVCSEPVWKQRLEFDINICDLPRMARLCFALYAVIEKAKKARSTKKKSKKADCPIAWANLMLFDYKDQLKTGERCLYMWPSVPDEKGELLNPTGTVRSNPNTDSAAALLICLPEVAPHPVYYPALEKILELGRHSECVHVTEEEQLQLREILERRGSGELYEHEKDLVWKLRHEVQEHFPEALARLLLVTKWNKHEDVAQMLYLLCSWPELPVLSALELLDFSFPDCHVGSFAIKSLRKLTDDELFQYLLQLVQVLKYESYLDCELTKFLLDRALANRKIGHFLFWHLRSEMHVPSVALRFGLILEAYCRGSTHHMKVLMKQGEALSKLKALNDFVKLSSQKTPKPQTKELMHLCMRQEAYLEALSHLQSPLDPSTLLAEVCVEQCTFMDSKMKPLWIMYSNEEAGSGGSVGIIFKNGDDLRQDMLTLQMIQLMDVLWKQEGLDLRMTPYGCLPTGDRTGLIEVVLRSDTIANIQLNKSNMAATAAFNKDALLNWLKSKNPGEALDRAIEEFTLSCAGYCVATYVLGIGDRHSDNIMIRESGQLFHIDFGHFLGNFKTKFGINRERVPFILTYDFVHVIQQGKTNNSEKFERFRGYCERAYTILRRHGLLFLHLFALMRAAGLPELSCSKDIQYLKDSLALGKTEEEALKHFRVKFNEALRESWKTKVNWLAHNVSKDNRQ
P110 δ/Pi3K δ, sequence (P27986 whole entry partner, canonical isoform): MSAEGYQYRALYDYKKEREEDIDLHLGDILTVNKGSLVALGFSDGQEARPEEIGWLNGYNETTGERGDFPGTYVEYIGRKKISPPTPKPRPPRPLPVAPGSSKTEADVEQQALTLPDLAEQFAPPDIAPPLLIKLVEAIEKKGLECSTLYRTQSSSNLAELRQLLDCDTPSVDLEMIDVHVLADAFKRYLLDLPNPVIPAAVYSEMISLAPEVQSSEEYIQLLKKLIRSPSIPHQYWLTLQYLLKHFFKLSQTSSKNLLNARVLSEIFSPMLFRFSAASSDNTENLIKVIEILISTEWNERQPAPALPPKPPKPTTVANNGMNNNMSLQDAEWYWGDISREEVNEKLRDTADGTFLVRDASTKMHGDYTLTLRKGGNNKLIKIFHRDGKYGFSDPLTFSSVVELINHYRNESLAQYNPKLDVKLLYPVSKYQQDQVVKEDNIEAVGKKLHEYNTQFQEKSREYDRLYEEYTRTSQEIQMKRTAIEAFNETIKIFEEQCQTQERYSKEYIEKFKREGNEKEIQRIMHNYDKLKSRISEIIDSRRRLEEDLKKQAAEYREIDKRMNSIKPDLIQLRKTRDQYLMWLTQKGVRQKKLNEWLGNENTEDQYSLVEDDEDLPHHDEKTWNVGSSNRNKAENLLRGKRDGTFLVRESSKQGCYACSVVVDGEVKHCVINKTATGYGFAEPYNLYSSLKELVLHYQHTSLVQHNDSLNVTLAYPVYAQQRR

Structure (SMILES) | melting point [°C] | inhibition at 1 µM (P110 δ/Pi3K δ) [%] | inhibition (P110 δ/Pi3K δ) [%] | IC50 (P110 δ/Pi3K δ; read-out: P110 δ/ Pi3K δ IC 50 nM) [nM]
Cl.O=c1c(-c2ccc(F)cc2)c(CN2CCOCC2)oc2ccc(Br)cc12 | 232 to 236 |  |  | 
Cl.O=c1c(-c2ccccc2)c(CN2CCOCC2)oc2ccc(Br)cc12 | 229 to 230 |  |  | 
Nc1ncnc2c1ncn2Cc1oc2ccccc2c(=O)c1-c1ccccc1 [Example 3, 2-[(6-Amino-9H-purin-9-yl)methyl]-3-phenyl-4H-chromen-4-one] | 173 to 175 | < 50 |  | 
Cl.O=c1c(-c2ccccc2)c(CN2CCOCC2)oc2ccccc12 [Example 4a, 2-(Morpholinomethyl)-3-phenyl-4H-chromen-4-one hydrochloride] | 208 to 209 | < 50 |  | 
O=c1c(-c2ccccc2)c(Cn2cnc3ccccc32)oc2ccc(Br)cc12 [Example 5, 2-[(1H-Benzo[d]imidazol-1-yl)methyl]-6-bromo-3-phenyl-4H-chromen-4-one] | 192 to 197 |  |  | 
Cc1cccc2c1ncn2Cc1oc2ccc(Br)cc2c(=O)c1-c1ccccc1 [Example 6, 6-Bromo-2-[(4-methyl-1H-benzo[d]imidazol-1-yl)methyl]-3-phenyl-4H-chromen-4-one] | 176 to 179 | < 50 |  | 
O=c1c(-c2ccccc2)c(Cn2cnc3ccccc32)oc2ccccc12 [Example 7, 2-[(1H-benzo[d]imidazol-1-yl)methyl]-3-phenyl-4H-chromen-4-one] | 186 to 191 | < 50 |  | 
Cc1cccc2c1ncn2Cc1oc2ccccc2c(=O)c1-c1ccccc1 [Example 8, 2-[(4-methyl-1H-benzo[d]imidazol-1-yl)methyl]-3-phenyl-4H-chromen-4-one] | 204 to 208 |  |  | 
O=c1c(-c2ccccc2)c(Cn2cnc3c(Cl)ncnc32)oc2ccccc12 [Example 9, 2-[(6-Chloro-9H-purin-9-yl)methyl]-3-phenyl-4H-chromen-4-one] | 187 to 190 | < 50 |  | 
O=c1c(-c2ccccc2)c(CSc2ncnc3[nH]cnc23)oc2ccccc12 [Example 11, 2-((9H-Purin-6-ylthio)methyl)-3-phenyl-4H-chromen-4-one] | 208 to 209 | < 50 |  | 
O=c1c(-c2ccccc2)c(Cn2ccnc2)oc2ccccc12 [Example 12, 2-[(1H-Imidazol-1-yl)methyl]-3-phenyl-4H-chromen-4-one] | 168 to 171 | < 50 |  | 
O=c1c(-c2ccccc2)c(CSc2ncnc3[nH]cnc23)oc2ccc(Br)cc12 [Example 13, 2-[(9H-Purin-6-ylthio)methyl]-6-bromo-3-phenyl-4H-chromen-4-one] | 214 to 218 | < 50 |  | 
Nc1ncnc2c1cnn2Cc1oc2ccc(Br)cc2c(=O)c1-c1ccccc1 [Example 14, 2-((4-Amino-1H-pyrazolo[3,4-d]pyrimidin-1-yl)methyl)-6-bromo-3-phenyl-4H-chromen-4-one] | 236 to 240 | < 50 |  | 
Nc1ncnc2c1ncn2Cc1oc2ccc(Br)cc2c(=O)c1-c1ccc(F)cc1 [Example 15, 2-[(6-Amino-9H-purin-9-yl)methyl]-6-bromo-3-(4-fluorophenyl)-4H-chromen-4-one] | 238 to 242 | < 50 |  | 
Nc1ncnc2c1ncn2Cc1oc2ccccc2c(=O)c1-c1ccc(F)cc1 [Example 16, 2-[(6-Amino-9H-purin-9-yl)methyl]-3-(4-fluorophenyl)-4H-chromen-4-one] | 212 to 216 | < 50 |  | 
Cl.O=c1c(-c2ccc(F)cc2)c(CN2CCOCC2)oc2ccccc12 [Example 18a, 3-(4-fluorophenyl)-2-(morpholinomethyl)-4H-chromen-4-one hydrochloride] | 225 to 229 | < 50 |  | 
Cc1ccccc1-c1c(Cn2cnc3c(N)ncnc32)oc2ccc(Br)cc2c1=O [Example 19, 2-[(6-Amino-9H-purin-9-yl)methyl]-6-bromo-3-o-tolyl-4H-chromen-4-one] | 252 to 255 |  |  | 
COc1cc(-c2nn(C(C)c3oc4ccccc4c(=O)c3-c3cccc(F)c3)c3ncnc(N)c23)ccc1F (stereo not shown) [Example 82, 2-(1-(4-amino-3-(4-fluoro-3-methoxyphenyl)-1H-pyrazolo[3,4-d]pyrimidin-1-yl)ethyl)-3-(3-fluorophenyl)-4H-chromen-4-one] |  |  | 50 to 100 | 
CC(c1oc2ccccc2c(=O)c1-c1cccc(F)c1)n1nc(-c2ccc(F)c(O)c2)c2c(N)ncnc21 (stereo not shown) [Example 82a, 2-(1-(4-amino-3-(4-fluoro-3-hydroxyphenyl)-1H-pyrazolo[3,4-d]pyrimidin-1-yl)ethyl)-3-(3-fluorophenyl)-4H-chromen-4-one] | 241 to 244 |  |  | 
COc1cc(F)ccc1-c1nn(C(C)c2oc3ccccc3c(=O)c2-c2cccc(F)c2)c2ncnc(N)c12 (stereo not shown) [Example 90, 2-(1-(4-amino-3-(4-fluoro-2-methoxyphenyl)-1H-pyrazolo[3,4-d]pyrimidin-1-yl)ethyl)-3-(3-fluorophenyl)-4H-chromen-4-one] |  |  | < 50 | 
CC(c1oc2ccccc2c(=O)c1-c1cccc(F)c1)n1nc(-c2ccc(F)cc2O)c2c(N)ncnc21 (stereo not shown) [Example 90a, 2-(1-(4-amino-3-(4-fluoro-2-hydroxyphenyl)-1H-pyrazolo[3,4-d]pyrimidin-1-yl)ethyl)-3-(3-fluorophenyl)-4H-chromen-4-one] | 235 to 237 |  |  | 
Cc1n[nH]c2cc(-c3nn(Cc4oc5ccccc5c(=O)c4-c4ccccc4)c4ncnc(N)c34)ccc12 [Example 92, 2-((4-amino-3-(3-methyl-1H-indazol-6-yl)-1H-pyrazolo[3,4-d]pyrimidin-1-yl)methyl)-3-phenyl-4H-chromen-4-one] |  |  | 50 to 100 | 
CC(c1oc2ccccc2c(=O)c1-c1cccc(F)c1)n1nc(-c2cc(F)c(O)c(F)c2)c2c(N)ncnc21 (stereo not shown) [Example 126a, 2-(1-(4-amino-3-(3,5-difluoro-4-hydroxyphenyl)-1H-pyrazolo[3,4-d]pyrimidin-1-yl)ethyl)-3-(3-fluorophenyl)-4H-chromen-4-one] |  |  | < 50 | 
CC(C)Oc1ccc(-c2nn(C(C)c3oc4ccccc4c(=O)c3-c3cccc(F)c3)c3ncnc(N)c23)cc1F (stereo not shown) [Example 158, 2-(1-(4-amino-3-(3-fluoro-4-isopropoxyphenyl)-1H-pyrazolo[3,4-d]pyrimidin-1-yl)ethyl)-3-(3-fluorophenyl)-4H-chromen-4-one] |  |  | 50 to 100 | < 250
CC(c1oc2ccccc2c(=O)c1-c1cccc(F)c1)n1nc(-c2cncnc2)c2c(N)ncnc21 (stereo not shown) [Example 160, 2-(1-(4-amino-3-(pyrimidin-5-yl)-1H-pyrazolo[3,4-d]pyrimidin-1-yl)ethyl)-3-(3-fluorophenyl)-4H-chromen-4-one] | 207 to 211 |  |  | 
CC(c1oc2ccccc2c(=O)c1-c1cccc(F)c1)n1nc(-c2cnn(C)c2)c2c(N)ncnc21 (stereo not shown) [Example 164, 2-(1-(4-amino-3-(1-methyl-1H-pyrazol-4-yl)-1H-pyrazolo[3,4-d]pyrimidin-1-yl)ethyl)-3-(3-fluorophenyl)-4H-chromen-4-one] |  |  | < 50 | 
CCOc1ccc2cc(-c3nn(C(C)c4oc5ccccc5c(=O)c4-c4cccc(F)c4)c4ncnc(N)c34)ccc2c1 (stereo not shown) [Example 175, 2-(1-(4-amino-3-(6-ethoxynaphthalen-2-yl)-1H-pyrazolo[3,4-d]pyrimidin-1-yl)ethyl)-3-(3-fluorophenyl)-4H-chromen-4-one] | 286 to 290 |  |  | 
